In ChEMBL document CHEMBL1131247, “Substituted naphthofurans as hallucinogenic phenethylamine-ergoline hybrid molecules with unexpected muscarinic antagonist activity” (J Med Chem, 1998):
Several values for one entry are separate records, joined by “and”; a condition that tells them apart may be missing. Equal entries are not always repeated. Activity calls are given as the source filed them. The calls are words filed in the database; no cut-off is given here.

Legend:
[1] = target: T1, 5-hydroxytryptamine receptor 2A (Homo sapiens, UniProt P28223); assay: Binding ability of compound at cloned human 5-hydroxytryptamine 2A receptor using [125 I]DOI as radioligand
T1 sequence (P28223 whole entry): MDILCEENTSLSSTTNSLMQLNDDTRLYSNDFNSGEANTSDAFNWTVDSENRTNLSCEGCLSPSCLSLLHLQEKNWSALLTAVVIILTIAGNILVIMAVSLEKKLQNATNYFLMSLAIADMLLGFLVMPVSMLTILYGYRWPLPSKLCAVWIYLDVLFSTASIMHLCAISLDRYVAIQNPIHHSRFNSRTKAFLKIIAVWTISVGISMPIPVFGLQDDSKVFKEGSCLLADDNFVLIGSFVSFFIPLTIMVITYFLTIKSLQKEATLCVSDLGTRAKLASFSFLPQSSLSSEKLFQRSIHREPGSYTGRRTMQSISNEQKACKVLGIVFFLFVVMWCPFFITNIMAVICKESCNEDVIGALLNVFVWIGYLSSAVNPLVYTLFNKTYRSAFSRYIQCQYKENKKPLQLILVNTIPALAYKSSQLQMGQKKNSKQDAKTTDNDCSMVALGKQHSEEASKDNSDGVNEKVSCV

[2] = target: T2, 5-hydroxytryptamine receptor 2B (Homo sapiens, UniProt P41595); assay: Binding ability of compound at cloned human 5-hydroxytryptamine 2B receptor using [3H]5-HT 2B as radioligand
T2 sequence (P41595 whole entry): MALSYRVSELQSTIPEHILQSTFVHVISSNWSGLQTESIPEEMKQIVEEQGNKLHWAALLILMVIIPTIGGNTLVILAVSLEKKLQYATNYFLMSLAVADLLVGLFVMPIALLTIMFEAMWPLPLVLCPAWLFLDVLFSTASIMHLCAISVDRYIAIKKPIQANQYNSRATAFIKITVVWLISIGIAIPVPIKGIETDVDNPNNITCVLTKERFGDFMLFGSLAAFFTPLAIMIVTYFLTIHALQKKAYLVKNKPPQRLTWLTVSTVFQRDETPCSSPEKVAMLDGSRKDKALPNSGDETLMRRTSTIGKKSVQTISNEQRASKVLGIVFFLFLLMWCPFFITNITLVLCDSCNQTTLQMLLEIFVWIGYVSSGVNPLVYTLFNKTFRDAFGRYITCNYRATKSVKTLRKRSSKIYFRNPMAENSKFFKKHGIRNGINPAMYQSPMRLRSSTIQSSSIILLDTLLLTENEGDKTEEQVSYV

[3] = target: 5-hydroxytryptamine receptor 2A (Rattus norvegicus, UniProt P14842); assay: Affinity at [3H]ketanserin-labeled 5-hydroxytryptamine 2A receptor in rat brain homogenate was determined; assay type: tissue-based
Chain of 5-hydroxytryptamine receptor 2A (Rattus norvegicus, UniProt P14842) (P14842 whole entry): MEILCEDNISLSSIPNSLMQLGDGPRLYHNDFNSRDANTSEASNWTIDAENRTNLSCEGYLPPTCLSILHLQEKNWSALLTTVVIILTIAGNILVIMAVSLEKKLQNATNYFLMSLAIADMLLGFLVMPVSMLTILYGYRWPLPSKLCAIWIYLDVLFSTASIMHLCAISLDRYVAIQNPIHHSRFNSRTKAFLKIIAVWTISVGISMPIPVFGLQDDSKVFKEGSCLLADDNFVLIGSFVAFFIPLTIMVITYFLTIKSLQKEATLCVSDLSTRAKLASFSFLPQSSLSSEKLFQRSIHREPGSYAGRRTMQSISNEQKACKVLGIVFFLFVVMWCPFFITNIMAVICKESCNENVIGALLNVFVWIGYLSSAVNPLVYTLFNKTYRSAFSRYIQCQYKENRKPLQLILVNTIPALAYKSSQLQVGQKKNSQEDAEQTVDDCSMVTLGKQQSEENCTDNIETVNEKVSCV

[4] = target: T3, 5-hydroxytryptamine receptor 2C (Homo sapiens, UniProt P28335); assay: Binding ability of compound at cloned human 5-hydroxytryptamine 2C receptor using [125 I]DOI as radioligand
T3 sequence (P28335 whole entry): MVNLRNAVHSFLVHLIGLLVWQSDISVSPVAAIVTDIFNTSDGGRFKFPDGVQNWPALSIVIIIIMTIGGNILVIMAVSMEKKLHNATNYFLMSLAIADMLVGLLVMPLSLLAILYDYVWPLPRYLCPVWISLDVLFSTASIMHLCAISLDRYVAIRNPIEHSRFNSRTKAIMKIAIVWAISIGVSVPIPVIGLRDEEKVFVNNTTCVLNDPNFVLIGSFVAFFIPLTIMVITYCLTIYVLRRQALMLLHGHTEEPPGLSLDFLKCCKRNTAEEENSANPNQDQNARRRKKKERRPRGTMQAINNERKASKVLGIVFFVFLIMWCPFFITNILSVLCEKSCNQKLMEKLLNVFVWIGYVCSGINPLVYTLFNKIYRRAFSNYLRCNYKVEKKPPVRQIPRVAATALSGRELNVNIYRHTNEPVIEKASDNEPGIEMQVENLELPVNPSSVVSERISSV

[5] = system: Rattus norvegicus; assay: Percentage of animals failing to emit 50 presses on either lever within the 15-min test period in rat at 5.84 mg/kg (16 uM/kg); assay type: functional
[6] = system: Rattus norvegicus; assay: Percentage of animals failing to emit 50 presses on either lever within the 15-min test period in rat at 0.365 mg/kg (1 uM/kg); assay type: functional
[7] = system: Rattus norvegicus; assay: Percentage of animals failing to emit 50 presses on either lever within the 15-min test period in rat at 0.78 mg/kg (2 umol/kg); assay type: functional
[8] = system: Rattus norvegicus; assay: Percentage of animals failing to emit 50 presses on either lever within the 15-min test period in rat at 1.46 mg/kg (4 uM/kg); assay type: functional
[9] = species: Rattus norvegicus; assay: (§1) Effective dose for LSD-like behavioral effect in rats; Not significant; assay type: functional, organism-based
[10] = species: Rattus norvegicus; assay: as §1; assay type: functional, organism-based; remark: listed apart in the source
[11] = species: Rattus norvegicus; assay: Percentage of animals emitting 50 presses on the LSD appropriate lever during the test period; assay type: functional
[12] = system: Rattus norvegicus; assay: Percentage of animals failing to emit 50 presses on either lever within the 15-min test period in rat at 2.92 mg/kg (8 uM/kg); assay type: functional
[13] = target: T4, 5-hydroxytryptamine receptor 1A (Rattus norvegicus, UniProt P19327); assay: Affinity at [3H]8-OH-DPAT-labeled 5-hydroxytryptamine 1A receptor in rat brain homogenate was determined; assay type: tissue-based
T4 sequence (P19327 whole entry): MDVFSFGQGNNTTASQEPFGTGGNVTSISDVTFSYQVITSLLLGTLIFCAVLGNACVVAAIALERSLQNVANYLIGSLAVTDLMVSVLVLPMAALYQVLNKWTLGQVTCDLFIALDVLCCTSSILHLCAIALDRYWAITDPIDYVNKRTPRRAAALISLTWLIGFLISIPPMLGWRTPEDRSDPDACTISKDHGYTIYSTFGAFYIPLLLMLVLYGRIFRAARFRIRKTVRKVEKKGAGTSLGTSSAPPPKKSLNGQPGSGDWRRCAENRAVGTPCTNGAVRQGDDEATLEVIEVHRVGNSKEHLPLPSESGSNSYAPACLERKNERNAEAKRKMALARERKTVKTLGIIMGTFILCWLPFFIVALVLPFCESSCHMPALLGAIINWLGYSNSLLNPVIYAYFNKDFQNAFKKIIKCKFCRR

[14] = system: Rattus norvegicus; assay: Percentage of animals failing to emit 50 presses on either lever within the 15-min test period in rat at 0.01 mg/kg (0.023 uM/kg); assay type: functional
[15] = system: Rattus norvegicus; assay: Percentage of animals failing to emit 50 presses on either lever within the 15-min test period in rat at 0.02 mg/kg(0.046 uM/kg); assay type: functional
[16] = system: Rattus norvegicus; assay: Percentage of animals failing to emit 50 presses on either lever within the 15-min test period in rat at 0.04 mg/kg (0.093 uM/kg); assay type: functional
[17] = system: Rattus norvegicus; assay: Percentage of animals failing to emit 50 presses on either lever within the 15-min test period in rat at 0.08 mg/kg (0.186 uM/kg); assay type: functional
[18] = species: Rattus norvegicus; assay: Effective dose for LSD-like behavioral effect in rats; assay type: functional
[19] = system: Rattus norvegicus; assay: Percentage of animals emitting 50 presses on the LSD appropriate lever during the test period i8n at 0.04 mg/kg (0.093 uM/kg); assay type: functional
[20] = system: Rattus norvegicus; assay: Percentage of animals emitting 50 presses on the LSD appropriate lever during the test period in at 0.08 mg/kg (0.186 uM/kg); assay type: functional
[21] = system: Rattus norvegicus; assay: Percentage of animals emitting 50 presses on the LSD appropriate lever during the test period in rat at 0.01 mg/kg (0.023 uM/kg); assay type: functional
[22] = system: Rattus norvegicus; assay: Percentage of animals emitting 50 presses on the LSD appropriate lever during the test period in rat at 0.02 mg/kg(0.046 uM/kg); assay type: functional
[23] = target: T2, 5-hydroxytryptamine receptor 2B; assay: Binding ability of compound at cloned human 5-hydroxytryptamine 2B receptor using [3H]- rauwolscine as radioligand
[24] = target: T3, 5-hydroxytryptamine receptor 2C; assay: Binding ability of compound at cloned human 5-hydroxytryptamine 2C receptor using [3H]- mesulergine as radioligand
[25] = system: Rattus norvegicus; assay: Percentage of animals failing to emit 50 presses on either lever within the 15-min test period in rat at 2.92 mg/kg (8 umol/kg); assay type: functional
[26] = system: Rattus norvegicus; assay: Percentage of animals failing to emit 50 presses on either lever within the 15-min test period in rat at 5.84 mg/kg (16 umol/kg); assay type: functional
[27] = system: Rattus norvegicus; assay: Percentage of animals failing to emit 50 presses on either lever within the 15-min test period in rat at 0.78 mg/kg(2 uM/kg); assay type: functional
[28] = system: Rattus norvegicus; assay: Percentage of animals failing to emit 50 presses on either lever within the 15-min test period in rat at 1.46 mg/kg (4 umol/kg); assay type: functional
[29] = system: Rattus norvegicus; assay: Percentage of animal emitting 50 presses on the LSD appropriate lever during the test period in rat at 0.365 mg/kg (1 uM/kg); assay type: functional
[30] = system: Rattus norvegicus; assay: Percentage of animals emitting 50 presses on the LSD appropriate lever during the test period in rat at 0.78 mg/kg(2 uM/kg); assay type: functional
[31] = system: Rattus norvegicus; assay: Percentage of animals emitting 50 presses on the LSD appropriate lever during the test period in rat at 1.46 mg/kg (4 umol/kg); assay type: functional
[32] = system: Rattus norvegicus; assay: Percentage of animals emitting 50 presses on the LSD appropriate lever during the test period in rat at 5.84 mg/kg (16 umol/kg); assay type: functional
[33] = target: T1, 5-hydroxytryptamine receptor 2A; assay: Binding ability of compound at cloned human 5-hydroxytryptamine 2A receptor using [3H]ketanserin as radioligand
[34] = target: T5, Muscarinic acetylcholine receptor M2 (Rattus norvegicus) (UniProt P10980)
T5 sequence (whole entry): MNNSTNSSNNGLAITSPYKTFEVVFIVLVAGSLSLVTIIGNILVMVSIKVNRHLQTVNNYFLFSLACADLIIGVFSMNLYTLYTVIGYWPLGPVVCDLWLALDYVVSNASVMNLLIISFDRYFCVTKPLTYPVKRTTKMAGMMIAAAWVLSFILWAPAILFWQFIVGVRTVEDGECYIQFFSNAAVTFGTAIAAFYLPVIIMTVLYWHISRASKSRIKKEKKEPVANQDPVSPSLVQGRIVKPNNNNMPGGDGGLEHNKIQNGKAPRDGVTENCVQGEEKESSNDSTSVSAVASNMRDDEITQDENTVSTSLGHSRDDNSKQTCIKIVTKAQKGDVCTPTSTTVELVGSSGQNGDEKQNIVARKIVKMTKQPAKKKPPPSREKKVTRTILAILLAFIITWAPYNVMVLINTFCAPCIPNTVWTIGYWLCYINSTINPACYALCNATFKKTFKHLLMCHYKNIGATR
Description: Compound was evaluated for the affinity at the cloned radio labelled Muscarinic acetylcholine receptor M2

[35] = target: T6, Muscarinic acetylcholine receptor M4 (Rattus norvegicus) (UniProt P08485)
T6 sequence (whole entry): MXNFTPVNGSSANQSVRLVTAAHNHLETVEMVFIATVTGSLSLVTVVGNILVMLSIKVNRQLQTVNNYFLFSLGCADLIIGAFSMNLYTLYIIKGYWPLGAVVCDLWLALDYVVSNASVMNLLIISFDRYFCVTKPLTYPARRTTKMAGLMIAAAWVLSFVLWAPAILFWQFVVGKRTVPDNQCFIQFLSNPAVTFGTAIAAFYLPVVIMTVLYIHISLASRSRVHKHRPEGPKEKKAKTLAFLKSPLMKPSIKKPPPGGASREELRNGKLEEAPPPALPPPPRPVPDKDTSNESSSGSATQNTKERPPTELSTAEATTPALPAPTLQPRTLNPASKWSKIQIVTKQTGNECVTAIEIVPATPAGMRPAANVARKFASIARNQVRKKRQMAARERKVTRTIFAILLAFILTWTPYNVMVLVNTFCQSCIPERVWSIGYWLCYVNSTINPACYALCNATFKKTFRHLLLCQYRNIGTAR
Description: Compound was evaluated for the affinity at the cloned radio labelled Muscarinic acetylcholine receptor M4

[36] = target: T7, Muscarinic acetylcholine receptor M5 (Rattus norvegicus) (UniProt P08911)
T7 sequence (whole entry): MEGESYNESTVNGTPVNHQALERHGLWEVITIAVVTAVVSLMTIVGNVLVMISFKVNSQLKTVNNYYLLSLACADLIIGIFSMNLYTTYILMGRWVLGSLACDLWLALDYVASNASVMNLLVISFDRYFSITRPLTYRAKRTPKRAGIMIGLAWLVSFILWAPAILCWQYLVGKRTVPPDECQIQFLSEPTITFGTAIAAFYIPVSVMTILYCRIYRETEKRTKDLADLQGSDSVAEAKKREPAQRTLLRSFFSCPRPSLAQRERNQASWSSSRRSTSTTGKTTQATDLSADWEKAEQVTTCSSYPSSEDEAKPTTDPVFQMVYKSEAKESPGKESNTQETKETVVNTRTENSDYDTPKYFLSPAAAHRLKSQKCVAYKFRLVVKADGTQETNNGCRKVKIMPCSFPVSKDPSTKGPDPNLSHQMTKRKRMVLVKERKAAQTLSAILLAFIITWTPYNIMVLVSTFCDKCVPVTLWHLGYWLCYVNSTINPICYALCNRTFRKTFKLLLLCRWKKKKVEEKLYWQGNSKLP
Description: Compound was evaluated for the affinity at the cloned radio labelled Muscarinic acetylcholine receptor M5

[37] = target: T8, Muscarinic acetylcholine receptor M1 (Mus musculus) (UniProt P12657)
T8 sequence (whole entry): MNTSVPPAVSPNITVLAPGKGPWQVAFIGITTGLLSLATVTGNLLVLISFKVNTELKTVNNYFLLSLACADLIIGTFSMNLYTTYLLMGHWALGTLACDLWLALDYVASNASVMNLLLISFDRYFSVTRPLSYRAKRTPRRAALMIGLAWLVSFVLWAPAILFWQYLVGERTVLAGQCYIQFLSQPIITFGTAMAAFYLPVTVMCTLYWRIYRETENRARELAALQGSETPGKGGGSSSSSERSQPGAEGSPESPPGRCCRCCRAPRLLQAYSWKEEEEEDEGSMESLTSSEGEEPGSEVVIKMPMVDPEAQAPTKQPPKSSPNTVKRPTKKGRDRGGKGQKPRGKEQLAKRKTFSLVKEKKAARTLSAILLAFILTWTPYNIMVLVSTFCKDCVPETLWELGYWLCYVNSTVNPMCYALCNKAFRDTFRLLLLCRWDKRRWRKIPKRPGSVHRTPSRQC
Description: Compound was evaluated for the affinity at the cloned radio labelled Muscarinic acetylcholine receptor M1

[38] = target: Muscarinic acetylcholine receptor M3 (Rattus norvegicus) (UniProt P08483)
Chain of Muscarinic acetylcholine receptor M3 (Rattus norvegicus) (P08483 whole entry, looked up): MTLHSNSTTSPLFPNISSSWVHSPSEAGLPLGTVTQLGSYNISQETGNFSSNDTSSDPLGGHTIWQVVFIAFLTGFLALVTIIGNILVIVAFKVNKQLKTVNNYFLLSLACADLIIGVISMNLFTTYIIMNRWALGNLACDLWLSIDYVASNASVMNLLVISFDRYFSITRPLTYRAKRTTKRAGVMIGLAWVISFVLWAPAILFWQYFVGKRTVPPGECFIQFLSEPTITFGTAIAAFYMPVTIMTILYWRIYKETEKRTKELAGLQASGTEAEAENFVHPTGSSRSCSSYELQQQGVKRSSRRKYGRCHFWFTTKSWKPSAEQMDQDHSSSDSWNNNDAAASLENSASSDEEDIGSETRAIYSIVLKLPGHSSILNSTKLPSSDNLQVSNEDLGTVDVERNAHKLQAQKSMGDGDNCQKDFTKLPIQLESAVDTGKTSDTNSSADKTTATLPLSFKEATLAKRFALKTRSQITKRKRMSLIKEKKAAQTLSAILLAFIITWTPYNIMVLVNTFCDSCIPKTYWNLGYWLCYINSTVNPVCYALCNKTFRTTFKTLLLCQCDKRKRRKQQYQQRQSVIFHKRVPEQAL
Description: Compound was evaluated for the affinity at the cloned radio labelled Muscarinic acetylcholine receptor M3

## COc1cc(Br)c2c3c1C[C@H](N)C[C@H]3CO2
[1]
  Ki: 8.5 µM
[2]
  Ki: 11.2 µM
[3]
  Ki: 3.88 µM
[4]
  Ki: 4.19 µM
[5]
  D: 11%
[6]
  D: 0%
[7]
  D: 0%
[8]
  D: 0%
[9]
  ED50: inactive
[10]
  ED50: inactive
[11]
  SDL: 27%
[12]
  D: 0%

## CCCN(CCC)[C@H]1Cc2c(OC)ccc3c2[C@@H](CO3)C1
[13]
  Ki: 144 µM
[3]
  Ki: 0.644 µM

## CCN(CC)C(=O)[C@@H]1C=C2c3cccc4[nH]cc(c34)C[C@H]2N(C)C1 [LYSERGIDE]
[14]
  D: 0%
[15]
  D: 7%
[16]
  D: 0%
[17]
  D: 0%
[18]
  ED50: 0.037 µmol/kg and 0.016 mg/kg
[19]
  SDL: 81%
[20]
  SDL: 100%
[21]
  SDL: 31%
[22]
  SDL: 62%

## COc1cc(Br)c2c3c1C[C@H](N)C[C@@H]3CO2
[1]
  Ki: 0.013 µM
[23]
  Ki: 0.255 µM
[2]
  Ki: 0.263 µM
[3]
  Ki: 1.05 µM
[4]
  Ki: 0.00596 µM
[24]
  Ki: 0.0896 µM
[25]
  D: 0%
[26]
  D: 15%
[6]
  D: 0%
[27]
  D: 0%
[28]
  D: 0%
[9]
  ED50: inactive
[10]
  ED50: inactive
[29]
  SDL: 0%
[11]
  SDL: 33%
[30]
  SDL: 0%
[31]
  SDL: 10%
[32]
  SDL: 44%
[33]
  Ki: 0.24 µM
[34]
  K 0.5: 41 nM
[35]
  K 0.5: 30 nM
[36]
  K 0.5: 33 nM
[37]
  K 0.5: 20 nM
[38]
  K 0.5: 12 nM
